# According to US8835377B2, “Oral delivery of peptide pharmaceutical compositions” (UGP Therapeutics, Inc., priority 2004, dated 2014):
# Assay: Pharmacokinetics after oral capsules (sCT plus Dmt-DALDA with citric acid and lauroyl carnitine), non-enteric coated or enteric coated, in fasted beagle dogs (plasma; ELISA for sCT, HPLC-MS for Dmt-DALDA)
# Assay type: in vivo
# Procedure: A second series of tests was carried out, as noted above, using beagle dogs. […] In the experiments represented in FIGS. 2A and 2B, size 00 […] capsules were each filled with 758 mg of a powdered blend consisting of citric acid (643 mg), lauroyl carnitine (66 mg), talc (33 mg), salmon calcitonin (sCT) (13 mg) and Dmt-DALDA (2.4 mg). Half of the capsules were coated with an enteric coating solution of L30D-55, while the remaining 50% of the capsules were not coated. Four fasted dogs were each given 1 uncoated capsule, and 2 weeks later they were each given an enteric coated capsule. After administration of each capsule, samples of blood were taken at 15 minute intervals from an indwelling catheter for up to 4 hours. The blood samples were centrifuged and the resulting plasma supernatants were stored frozen at −20° C. The plasma samples were subsequently analyzed for sCT by a direct ELISA, and for Dmt-DALDA by HPLC-mass spectrometry performed as set forth in Wan, H. and Desiderio, D., Quantitation of [DMT^1] DALDA in ovine plasma by on-line liquid chromatography/quadrapole time-of-flight mass spectrometry, Rapid Communications in Mass Spectrometry, 2003; 17, 538-546, the contents of which are incorporated herein by reference.
# The results summarized in FIGS. 2A and 2B as plasma peptide concentration normalized to a 1 mg dose as a function of time relative to the average Tmax, (i.e., the time at which the maximum amount of peptide was detected) indicate that both peptides, i.e., sCT and Dmt-DALDA, were detected in dogs given uncoated or enteric coated capsules. […] Table DI (below) sets forth the values upon which the curves in FIGS. 2A and 2B are based. The results are summarized in the tables as plasma peptide concentration normalized to a 1 mg dose as a function of time. Table III, moreover, provides the standard deviations for the data obtained regarding each of the test dogs, which standard deviations are also indicated in FIGS. 2A and 2B.
# Table IV (below) summarizes the pharmacokinetic parameters in dogs of orally administered sCT and Dmt-DALDA when administered in non-enteric coated versus enteric coated capsules. Peptide was not detected from 1 dog in each group due to (a) Dog 3 vomiting the uncoated capsule and (b) delayed gastric emptying in Dog 2 provided with an enteric coated capsule. Cmax and AUC are as defined with regard to Table H above.
structure (smiles),measurement,setting,value
"Cc1cc(O)cc(C)c1C[C@H](N)C(=O)N[C@H](CCCNC(=N)N)C(=O)N[C@@H](Cc1ccccc1)C(=O)N[C@@H](CCCCN)C(N)=O [Dmt-DALDA, H-2,6-dimethyltyrosine-D-Arginine-Phenylalanine-Lysine-NH2]",plasma peptide concentration normalized to a 1 mg dose,"enteric coated capsule, Dog 3, 45 min",0 pg/mL
same,plasma peptide concentration normalized to a 1 mg dose,"enteric coated capsule, Dog 3, 60 min",0 pg/mL
same,plasma peptide concentration normalized to a 1 mg dose,"enteric coated capsule, Dog 3, 75 min",0 pg/mL
same,plasma peptide concentration normalized to a 1 mg dose,"enteric coated capsule, Dog 3, 90 min",0 pg/mL
same,plasma peptide concentration normalized to a 1 mg dose,"enteric coated capsule, Dog 3, 105 min",0 pg/mL
same,plasma peptide concentration normalized to a 1 mg dose,"enteric coated capsule, Dog 3, 120 min",0 pg/mL
same,plasma peptide concentration normalized to a 1 mg dose,"enteric coated capsule, Dog 3, 135 min",21494 pg/mL
same,plasma peptide concentration normalized to a 1 mg dose,"enteric coated capsule, Dog 3, 150 min",19378 pg/mL
same,plasma peptide concentration normalized to a 1 mg dose,"enteric coated capsule, Dog 3, 165 min",12697 pg/mL
same,plasma peptide concentration normalized to a 1 mg dose,"enteric coated capsule, Dog 3, 180 min",9100 pg/mL
same,plasma peptide concentration normalized to a 1 mg dose,"enteric coated capsule, Dog 3, 195 min",4876 pg/mL
same,plasma peptide concentration normalized to a 1 mg dose,"enteric coated capsule, Dog 4, 0 min",0 pg/mL
same,plasma peptide concentration normalized to a 1 mg dose,"enteric coated capsule, Dog 4, 15 min",0 pg/mL
same,plasma peptide concentration normalized to a 1 mg dose,"enteric coated capsule, Dog 4, 30 min",0 pg/mL
same,plasma peptide concentration normalized to a 1 mg dose,"enteric coated capsule, Dog 4, 45 min",0 pg/mL
same,plasma peptide concentration normalized to a 1 mg dose,"enteric coated capsule, Dog 4, 60 min",0 pg/mL
same,plasma peptide concentration normalized to a 1 mg dose,"enteric coated capsule, Dog 4, 75 min",0 pg/mL
same,plasma peptide concentration normalized to a 1 mg dose,"enteric coated capsule, Dog 4, 90 min",0 pg/mL
same,plasma peptide concentration normalized to a 1 mg dose,"enteric coated capsule, Dog 4, 105 min",4577 pg/mL
same,plasma peptide concentration normalized to a 1 mg dose,"enteric coated capsule, Dog 4, 120 min",12116 pg/mL
same,plasma peptide concentration normalized to a 1 mg dose,"enteric coated capsule, Dog 4, 135 min",10207 pg/mL
same,plasma peptide concentration normalized to a 1 mg dose,"enteric coated capsule, Dog 4, 150 min",6307 pg/mL
same,plasma peptide concentration normalized to a 1 mg dose,"enteric coated capsule, Dog 4, 165 min",5158 pg/mL
same,plasma peptide concentration normalized to a 1 mg dose,"enteric coated capsule, Dog 4, 180 min",3884 pg/mL
same,plasma peptide concentration normalized to a 1 mg dose,"enteric coated capsule, Dog 4, 195 min",2896 pg/mL
same,plasma peptide concentration normalized to a 1 mg dose,"non-enteric coated capsule, Dog 1, 45 min",5104 pg/mL
same,plasma peptide concentration normalized to a 1 mg dose,"non-enteric coated capsule, Dog 1, 60 min",4066 pg/mL
same,plasma peptide concentration normalized to a 1 mg dose,"non-enteric coated capsule, Dog 1, 75 min",2407 pg/mL
same,plasma peptide concentration normalized to a 1 mg dose,"non-enteric coated capsule, Dog 1, 90 min",2780 pg/mL
same,plasma peptide concentration normalized to a 1 mg dose,"non-enteric coated capsule, Dog 1, 105 min",1938 pg/mL
same,plasma peptide concentration normalized to a 1 mg dose,"non-enteric coated capsule, Dog 1, 120 min",1627 pg/mL
same,plasma peptide concentration normalized to a 1 mg dose,"non-enteric coated capsule, Dog 1, 135 min",1158 pg/mL
same,plasma peptide concentration normalized to a 1 mg dose,"non-enteric coated capsule, Dog 1, 150 min",830 pg/mL
same,plasma peptide concentration normalized to a 1 mg dose,"non-enteric coated capsule, Dog 1, 165 min",913 pg/mL
same,plasma peptide concentration normalized to a 1 mg dose,"non-enteric coated capsule, Dog 1, 180 min",705 pg/mL
same,plasma peptide concentration normalized to a 1 mg dose,"non-enteric coated capsule, Dog 1, 195 min",581 pg/mL
same,plasma peptide concentration normalized to a 1 mg dose,"non-enteric coated capsule, Dog 1, 210 min",544 pg/mL
same,plasma peptide concentration normalized to a 1 mg dose,"non-enteric coated capsule, Dog 1, 225 min",436 pg/mL
same,plasma peptide concentration normalized to a 1 mg dose,"non-enteric coated capsule, Dog 1, 240 min",402 pg/mL
same,plasma peptide concentration normalized to a 1 mg dose,"non-enteric coated capsule, Dog 2, 45 min",5602 pg/mL
same,plasma peptide concentration normalized to a 1 mg dose,"non-enteric coated capsule, Dog 2, 60 min",5726 pg/mL
same,plasma peptide concentration normalized to a 1 mg dose,"non-enteric coated capsule, Dog 2, 75 min",4523 pg/mL
same,plasma peptide concentration normalized to a 1 mg dose,"non-enteric coated capsule, Dog 2, 90 min",3568 pg/mL
same,plasma peptide concentration normalized to a 1 mg dose,"non-enteric coated capsule, Dog 2, 105 min",3444 pg/mL
same,plasma peptide concentration normalized to a 1 mg dose,"non-enteric coated capsule, Dog 2, 120 min",2614 pg/mL
same,plasma peptide concentration normalized to a 1 mg dose,"non-enteric coated capsule, Dog 2, 135 min",2697 pg/mL
same,plasma peptide concentration normalized to a 1 mg dose,"non-enteric coated capsule, Dog 2, 150 min",2407 pg/mL
same,plasma peptide concentration normalized to a 1 mg dose,"non-enteric coated capsule, Dog 2, 165 min",2531 pg/mL
same,plasma peptide concentration normalized to a 1 mg dose,"non-enteric coated capsule, Dog 2, 180 min",2075 pg/mL
same,plasma peptide concentration normalized to a 1 mg dose,"non-enteric coated capsule, Dog 2, 195 min",1328 pg/mL
same,plasma peptide concentration normalized to a 1 mg dose,"non-enteric coated capsule, Dog 2, 210 min",1867 pg/mL
same,plasma peptide concentration normalized to a 1 mg dose,"non-enteric coated capsule, Dog 2, 225 min",1535 pg/mL
same,plasma peptide concentration normalized to a 1 mg dose,"non-enteric coated capsule, Dog 2, 240 min",1494 pg/mL
same,plasma peptide concentration normalized to a 1 mg dose,"non-enteric coated capsule, Dog 4, 45 min",5788 pg/mL
same,plasma peptide concentration normalized to a 1 mg dose,"non-enteric coated capsule, Dog 4, 60 min",4481 pg/mL
same,plasma peptide concentration normalized to a 1 mg dose,"non-enteric coated capsule, Dog 4, 75 min",2934 pg/mL
same,plasma peptide concentration normalized to a 1 mg dose,"non-enteric coated capsule, Dog 4, 90 min",2382 pg/mL
same,plasma peptide concentration normalized to a 1 mg dose,"non-enteric coated capsule, Dog 4, 105 min",3054 pg/mL
same,plasma peptide concentration normalized to a 1 mg dose,"non-enteric coated capsule, Dog 4, 120 min",1759 pg/mL
same,plasma peptide concentration normalized to a 1 mg dose,"non-enteric coated capsule, Dog 4, 135 min",1627 pg/mL
same,plasma peptide concentration normalized to a 1 mg dose,"non-enteric coated capsule, Dog 4, 150 min",1544 pg/mL
same,plasma peptide concentration normalized to a 1 mg dose,"non-enteric coated capsule, Dog 4, 165 min",1324 pg/mL
same,plasma peptide concentration normalized to a 1 mg dose,"non-enteric coated capsule, Dog 4, 180 min",1191 pg/mL
same,plasma peptide concentration normalized to a 1 mg dose,"non-enteric coated capsule, Dog 4, 195 min",851 pg/mL
same,plasma peptide concentration normalized to a 1 mg dose,"non-enteric coated capsule, Dog 4, 210 min",722 pg/mL
same,plasma peptide concentration normalized to a 1 mg dose,"non-enteric coated capsule, Dog 4, 225 min",672 pg/mL
same,plasma peptide concentration normalized to a 1 mg dose,"non-enteric coated capsule, Dog 4, 240 min",556 pg/mL
